We go through seven molecules from the kinase profiling compilation of Christmann-Franck et al. (2016).

Structures are written as SMILES.

Among the targets are DDR1 (human) (UniProt Q08345); PIK3CA (human) (UniProt P42336); CDKL3 (human) (UniProt Q8IVW4); EGFR (human) (UniProt P00533); GRK4 (human) (UniProt P32298); PIK3C2G (human) (UniProt O75747); GRK1 (human) (UniProt Q15835); STK38 (human) (UniProt Q15208); STK39 (human) (UniProt Q9UEW8); ICK (human) (UniProt Q9UPZ9); PRPF4B (human) (UniProt Q13523); NIM1 (human) (UniProt Q8IY84); MAP3K6 (human) (UniProt O95382); HUNK (human) (UniProt P57058); PLK2 (human) (UniProt Q9NYY3); MAK (human) (UniProt P20794); IRAK1 (human) (UniProt P51617); DYRK1A (human) (UniProt Q13627); BTK (human) (UniProt Q06187); MET (human) (UniProt P08581).

Test in all cases: KINOMEscan competition binding
Common to all, as to conditions: compound 10.0 µM

Test [1] has as its system EGFR (human), P00533 [L861Q].
In test [2] the test system is EGFR (human), P00533 [G719S].
The subject of test [3] is PIK3CA (human), P42336 [C420R].

Chain of PIK3CA (human) (P42336 whole entry, looked up): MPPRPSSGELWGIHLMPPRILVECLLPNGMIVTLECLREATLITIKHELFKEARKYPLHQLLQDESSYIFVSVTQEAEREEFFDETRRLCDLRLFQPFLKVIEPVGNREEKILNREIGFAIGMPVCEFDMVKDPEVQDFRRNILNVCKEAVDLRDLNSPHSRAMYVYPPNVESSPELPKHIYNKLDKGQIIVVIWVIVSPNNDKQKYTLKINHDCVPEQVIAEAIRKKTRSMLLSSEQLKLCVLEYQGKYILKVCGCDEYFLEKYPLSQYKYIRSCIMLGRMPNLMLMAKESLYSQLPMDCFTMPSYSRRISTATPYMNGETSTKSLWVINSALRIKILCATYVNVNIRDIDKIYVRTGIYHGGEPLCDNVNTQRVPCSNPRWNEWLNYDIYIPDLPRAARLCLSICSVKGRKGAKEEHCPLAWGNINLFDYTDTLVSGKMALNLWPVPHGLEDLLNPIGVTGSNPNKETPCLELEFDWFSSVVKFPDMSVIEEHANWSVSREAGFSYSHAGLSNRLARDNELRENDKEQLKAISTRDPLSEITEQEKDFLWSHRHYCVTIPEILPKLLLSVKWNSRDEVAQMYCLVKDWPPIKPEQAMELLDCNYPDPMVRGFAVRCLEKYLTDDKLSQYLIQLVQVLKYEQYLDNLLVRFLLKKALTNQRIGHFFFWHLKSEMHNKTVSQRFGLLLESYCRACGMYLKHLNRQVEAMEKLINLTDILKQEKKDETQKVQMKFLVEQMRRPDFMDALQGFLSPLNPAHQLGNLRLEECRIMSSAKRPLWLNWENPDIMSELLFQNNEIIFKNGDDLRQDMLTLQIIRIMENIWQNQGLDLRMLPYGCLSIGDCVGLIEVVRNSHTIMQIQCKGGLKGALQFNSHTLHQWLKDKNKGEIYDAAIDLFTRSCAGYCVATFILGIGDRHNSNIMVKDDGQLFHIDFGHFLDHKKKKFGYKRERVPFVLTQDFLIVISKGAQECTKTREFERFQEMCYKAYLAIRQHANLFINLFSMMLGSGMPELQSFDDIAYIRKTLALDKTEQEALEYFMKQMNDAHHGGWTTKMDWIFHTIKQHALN
Chain of PRPF4B (human) (Q13523 whole entry, looked up): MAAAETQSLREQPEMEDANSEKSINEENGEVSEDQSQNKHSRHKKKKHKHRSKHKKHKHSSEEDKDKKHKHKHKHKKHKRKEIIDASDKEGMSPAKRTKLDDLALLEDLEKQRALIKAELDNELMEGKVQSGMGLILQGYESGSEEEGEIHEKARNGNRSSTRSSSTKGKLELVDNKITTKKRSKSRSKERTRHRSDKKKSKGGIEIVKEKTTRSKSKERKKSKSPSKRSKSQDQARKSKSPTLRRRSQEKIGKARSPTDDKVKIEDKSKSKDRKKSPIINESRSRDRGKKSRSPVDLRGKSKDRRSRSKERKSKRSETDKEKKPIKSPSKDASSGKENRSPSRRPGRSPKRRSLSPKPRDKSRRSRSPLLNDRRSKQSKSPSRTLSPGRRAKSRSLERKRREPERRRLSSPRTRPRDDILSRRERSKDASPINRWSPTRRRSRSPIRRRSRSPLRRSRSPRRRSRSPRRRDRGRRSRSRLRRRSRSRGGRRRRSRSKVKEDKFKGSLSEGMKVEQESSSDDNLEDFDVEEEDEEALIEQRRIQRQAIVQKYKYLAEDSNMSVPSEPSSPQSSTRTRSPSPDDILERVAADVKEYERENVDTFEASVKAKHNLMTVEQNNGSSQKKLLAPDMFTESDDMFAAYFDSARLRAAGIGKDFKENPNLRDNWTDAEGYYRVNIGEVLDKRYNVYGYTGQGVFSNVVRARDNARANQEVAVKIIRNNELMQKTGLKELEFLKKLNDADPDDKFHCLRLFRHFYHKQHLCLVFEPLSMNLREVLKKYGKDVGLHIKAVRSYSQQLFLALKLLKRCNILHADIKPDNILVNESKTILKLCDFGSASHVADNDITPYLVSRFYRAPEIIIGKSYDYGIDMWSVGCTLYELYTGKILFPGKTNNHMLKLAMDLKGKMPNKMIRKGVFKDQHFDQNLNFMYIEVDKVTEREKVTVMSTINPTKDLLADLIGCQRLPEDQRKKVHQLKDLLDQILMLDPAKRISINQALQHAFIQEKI
Chain of DDR1 (human) (Q08345 whole entry, looked up): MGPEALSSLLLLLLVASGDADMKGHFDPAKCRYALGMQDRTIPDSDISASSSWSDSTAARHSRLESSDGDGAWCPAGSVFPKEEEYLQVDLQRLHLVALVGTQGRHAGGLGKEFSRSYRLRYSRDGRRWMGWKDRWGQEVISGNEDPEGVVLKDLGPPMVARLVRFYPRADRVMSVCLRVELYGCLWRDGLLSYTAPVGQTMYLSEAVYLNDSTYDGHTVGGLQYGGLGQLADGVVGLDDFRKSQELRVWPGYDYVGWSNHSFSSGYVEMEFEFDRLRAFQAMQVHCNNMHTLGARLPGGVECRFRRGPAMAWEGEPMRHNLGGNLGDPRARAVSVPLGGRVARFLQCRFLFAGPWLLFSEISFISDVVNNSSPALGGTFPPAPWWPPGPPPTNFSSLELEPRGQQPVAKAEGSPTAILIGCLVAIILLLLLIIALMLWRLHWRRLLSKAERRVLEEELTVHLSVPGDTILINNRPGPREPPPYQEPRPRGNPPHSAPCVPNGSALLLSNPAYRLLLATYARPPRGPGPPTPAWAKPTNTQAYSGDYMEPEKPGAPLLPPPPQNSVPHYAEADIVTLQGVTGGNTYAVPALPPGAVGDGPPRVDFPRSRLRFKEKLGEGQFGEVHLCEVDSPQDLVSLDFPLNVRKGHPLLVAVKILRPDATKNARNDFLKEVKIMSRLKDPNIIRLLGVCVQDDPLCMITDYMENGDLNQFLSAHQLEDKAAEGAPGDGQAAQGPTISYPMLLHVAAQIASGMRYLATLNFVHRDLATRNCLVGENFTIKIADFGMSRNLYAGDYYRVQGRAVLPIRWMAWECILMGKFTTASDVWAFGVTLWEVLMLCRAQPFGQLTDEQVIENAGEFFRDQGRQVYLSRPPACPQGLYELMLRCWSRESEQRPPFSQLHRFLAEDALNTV
Chain of PIK3C2G (human) (O75747 whole entry, looked up): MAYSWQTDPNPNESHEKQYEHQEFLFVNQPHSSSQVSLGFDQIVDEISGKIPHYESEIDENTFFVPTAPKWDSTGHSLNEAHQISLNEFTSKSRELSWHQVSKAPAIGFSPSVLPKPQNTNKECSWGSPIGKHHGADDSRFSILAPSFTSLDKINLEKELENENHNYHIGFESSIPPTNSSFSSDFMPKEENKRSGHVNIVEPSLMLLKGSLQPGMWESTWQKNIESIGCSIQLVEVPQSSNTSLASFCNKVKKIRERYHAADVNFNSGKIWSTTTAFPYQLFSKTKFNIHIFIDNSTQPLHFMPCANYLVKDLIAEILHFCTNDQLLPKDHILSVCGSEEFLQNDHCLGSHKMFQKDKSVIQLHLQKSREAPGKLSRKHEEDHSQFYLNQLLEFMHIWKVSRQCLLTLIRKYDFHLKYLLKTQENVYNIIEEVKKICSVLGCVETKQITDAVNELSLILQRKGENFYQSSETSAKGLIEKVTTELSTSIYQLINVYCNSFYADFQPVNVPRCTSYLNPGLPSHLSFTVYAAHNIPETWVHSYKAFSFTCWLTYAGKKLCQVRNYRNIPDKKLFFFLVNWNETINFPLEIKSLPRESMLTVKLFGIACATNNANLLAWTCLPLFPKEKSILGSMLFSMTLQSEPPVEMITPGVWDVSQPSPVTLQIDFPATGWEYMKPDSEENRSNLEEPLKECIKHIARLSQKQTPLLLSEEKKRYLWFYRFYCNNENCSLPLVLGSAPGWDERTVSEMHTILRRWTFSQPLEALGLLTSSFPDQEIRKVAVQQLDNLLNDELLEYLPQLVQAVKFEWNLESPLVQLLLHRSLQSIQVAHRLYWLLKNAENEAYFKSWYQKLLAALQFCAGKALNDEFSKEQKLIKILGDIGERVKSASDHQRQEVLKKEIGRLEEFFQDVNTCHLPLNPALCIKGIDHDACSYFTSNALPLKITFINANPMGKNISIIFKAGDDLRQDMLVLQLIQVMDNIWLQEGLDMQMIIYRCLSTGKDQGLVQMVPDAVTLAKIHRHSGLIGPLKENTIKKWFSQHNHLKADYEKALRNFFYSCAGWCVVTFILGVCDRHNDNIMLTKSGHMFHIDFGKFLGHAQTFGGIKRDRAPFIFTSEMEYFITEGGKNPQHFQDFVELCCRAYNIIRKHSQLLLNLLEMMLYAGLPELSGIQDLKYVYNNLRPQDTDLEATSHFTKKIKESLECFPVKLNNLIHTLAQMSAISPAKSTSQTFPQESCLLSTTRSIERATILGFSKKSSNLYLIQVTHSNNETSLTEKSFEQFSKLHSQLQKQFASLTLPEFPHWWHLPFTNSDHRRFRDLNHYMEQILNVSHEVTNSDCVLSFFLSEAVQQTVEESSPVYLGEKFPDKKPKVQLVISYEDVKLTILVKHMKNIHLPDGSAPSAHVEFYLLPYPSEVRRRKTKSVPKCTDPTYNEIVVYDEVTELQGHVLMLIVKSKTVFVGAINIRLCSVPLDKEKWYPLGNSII
Chain of STK38 (human) (Q15208 whole entry, looked up): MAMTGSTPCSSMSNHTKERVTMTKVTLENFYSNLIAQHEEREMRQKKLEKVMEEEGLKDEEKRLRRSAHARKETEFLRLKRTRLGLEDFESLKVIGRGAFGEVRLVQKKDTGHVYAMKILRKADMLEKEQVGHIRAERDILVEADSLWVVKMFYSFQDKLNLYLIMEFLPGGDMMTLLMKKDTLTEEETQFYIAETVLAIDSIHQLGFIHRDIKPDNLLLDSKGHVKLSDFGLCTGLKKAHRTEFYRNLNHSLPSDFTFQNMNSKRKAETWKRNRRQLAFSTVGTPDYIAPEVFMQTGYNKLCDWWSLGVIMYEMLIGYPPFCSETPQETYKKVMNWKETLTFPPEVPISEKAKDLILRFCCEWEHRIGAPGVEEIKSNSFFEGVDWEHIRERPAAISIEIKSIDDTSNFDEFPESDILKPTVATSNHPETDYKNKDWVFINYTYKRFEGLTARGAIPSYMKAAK
Chain of PIK3CA (human), P42336 [C420R] (P42336 whole entry C420R, looked up): as the sequence (P42336 whole entry, looked up) above, with C420R counted along it

On to `CC[C@@H]1C(=O)N(C)c2cnc(Nc3ccc(C(=O)NC4CCN(C)CC4)cc3OC)nc2N1C1CCCC1`, for which the kinase still bound, per cent of control at DDR1 (human) and at PIK3CA (human) was 100% in each case.

`Cn1c(=O)n(-c2ccc(C(C)(C)C#N)cc2)c2c3cc(-c4cnc5ccccc5c4)ccc3ncc21`: the kinase still bound, per cent of control was found to be 100% on CDKL3 (human); 100% at EGFR (human); 100% on GRK4 (human); 4.4% at PIK3C2G (human); 100% at GRK1 (human); 100% in [1]. Further, the kinase still bound, per cent of control on STK38 (human), on STK39 (human), at ICK (human), at PRPF4B (human), on NIM1 (human) and on MAP3K6 (human) was 100% each time. Besides, the kinase still bound, per cent of control is 100% on DDR1 (human); 100% on HUNK (human); 100% at PLK2 (human); 2.8% on PIK3CA (human); 100% on MAK (human); 100% at IRAK1 (human). Further, the kinase still bound, per cent of control (on DYRK1A (human); in [2]) was 100% each time.

For `C=CC(=O)Nc1cccc(Oc2nc(Nc3ccc(N4CCN(C)CC4)cc3OC)ncc2Cl)c1`, the kinase still bound, per cent of control is 0.1% on BTK (human); 0.1% on EGFR (human); 0.05% in test [1]; 100% at DDR1 (human); 100% on PIK3CA (human); 0.3% in [2]. At MET (human), this molecule had a kinase still bound, per cent of control of 20%.

Turning to `COc1cc(C(=O)NC2CCN(C)CC2)ccc1Nc1ncc2c(n1)N(C1CCCC1)C(C)CC(=O)N2C` (centres undefined), the kinase still bound, per cent of control (at BTK (human); at EGFR (human); in test [1]; on DDR1 (human); on PIK3CA (human); in test [2]) was 100% each time. In addition, on MET (human), the kinase still bound, per cent of control was 100%.

Turning to `Cc1ccc(C(=O)Nc2cccc(C(F)(F)F)c2)cc1Nc1cncc(C(N)=O)c1`, the kinase still bound, per cent of control on BTK (human) was found to be 100%; at EGFR (human), 100%; in test [1], 100%; at DDR1 (human) it was 0.1%; at PIK3CA (human), 100%; in test [2], 100%. The kinase still bound, per cent of control at MET (human) amounted to 100%.

For `OCCCNc1cc(-c2ccnc(Nc3cccc(Cl)c3)n2)ccn1`, the kinase still bound, per cent of control worked out at 100% at BTK (human); 5.4% on CDKL3 (human); 100% in test [3]; 100% on EGFR (human); 100% at GRK4 (human); 100% at PIK3C2G (human). In addition, the kinase still bound, per cent of control on GRK1 (human) was determined as 100%; in test [1], 100%; on STK38 (human), 100%; on STK39 (human), 100%; at ICK (human) it was 2.2%; at PRPF4B (human) it was 100%. In addition, the kinase still bound, per cent of control at NIM1 (human), on MAP3K6 (human), at DDR1 (human), on HUNK (human), at PLK2 (human) and on PIK3CA (human) was 100% each time. Also, the kinase still bound, per cent of control was 4.6% on MAK (human); 100% at IRAK1 (human); 7.8% on DYRK1A (human); 100% in test [2]; 100% at MET (human).

In the case of `COc1cc(C(=O)NC2CCN(C)CC2)ccc1Nc1ncc2c(n1)N(C1CCCC1)CCC(=O)N2C(C)C`, the kinase still bound, per cent of control (at BTK (human); on CDKL3 (human); in test [3]; at EGFR (human); at GRK4 (human); at PIK3C2G (human)) was 100% throughout. The kinase still bound, per cent of control (on GRK1 (human); in test [1]; at STK38 (human); at STK39 (human); on ICK (human); on PRPF4B (human)) was 100% each time. The kinase still bound, per cent of control on NIM1 (human), at MAP3K6 (human), on DDR1 (human), at HUNK (human), on PLK2 (human) and at PIK3CA (human) was 100% throughout. Moreover, the kinase still bound, per cent of control (on MAK (human); on IRAK1 (human); on DYRK1A (human); in [2]; at MET (human)) was 100% throughout.
